Structures can show the parent of a compound that is named as a salt.

In this experiment the target is T1, IRAK4 (Homo sapiens, UniProt Q9NWZ3).
T1 sequence (Q9NWZ3 1-460): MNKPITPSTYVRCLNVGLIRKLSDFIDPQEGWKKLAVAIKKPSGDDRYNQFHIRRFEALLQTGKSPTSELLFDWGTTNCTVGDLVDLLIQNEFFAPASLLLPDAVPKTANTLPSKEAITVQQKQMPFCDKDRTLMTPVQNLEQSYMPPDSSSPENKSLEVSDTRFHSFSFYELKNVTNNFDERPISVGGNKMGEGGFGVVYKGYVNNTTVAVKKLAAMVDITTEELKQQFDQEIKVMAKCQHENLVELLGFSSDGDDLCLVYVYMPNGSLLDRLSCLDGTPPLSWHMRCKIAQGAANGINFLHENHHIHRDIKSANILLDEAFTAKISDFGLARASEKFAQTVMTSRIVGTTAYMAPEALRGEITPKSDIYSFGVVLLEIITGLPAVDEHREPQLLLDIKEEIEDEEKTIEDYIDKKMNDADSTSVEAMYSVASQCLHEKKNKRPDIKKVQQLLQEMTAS
Kind of experiment: IRAK4 Inhibition Assay. Conditions: ATP 500 μM; fluoresceinated peptide 1.5 μM; IRAK4 0.6 nM; 60 min room temperature; Caliper LABCHIP. In kind it is biochemical. As to the method: The assays were performed in U-bottom 384-well plates. The final assay volume was 30 μL prepared from 15 μL additions of enzyme and substrates (fluoresceinated peptide and ATP) and test compounds in assay buffer (20 mM HEPES pH 7.2, 10 mM MgCl2, 0.015% Brij 35 and 4 mM DTT). The reaction was initiated by the combination of IRAK4 with substrates and test compounds. The reaction mixture was incubated at room temperature for 60 min. and terminated by adding 45 μL of 35 mM EDTA to each sample. The reaction mixture was analyzed on the Caliper LABCHIP® 3000 (Caliper, Hopkinton, MA) by electrophoretic separation of the fluorescent substrate and phosphorylated product. Inhibition data were calculated by comparison to no enzyme control reactions for 100% inhibition and vehicle-only reactions for 0% inhibition. The final concentrations of reagents in the assays are ATP, 500 μM; FL-IPTSPITTTYFFFKKK peptide 1.5 μM; IRAK4, 0.6 nM; and DMSO, 1.6%.
Consider `CC(C)Nc1c(-c2cc(C3CNCCO3)no2)cnc2c1[nH]c1cc(C#N)ccc12` (stereo not drawn) [Example 78, 4-(isopropylamino)-3-(3-(morpholin-2-yl)isoxazol-5-yl)-5H-pyrido[3,2-b]indole-7-carbonitrile], for which the IC50 was found to be 26 nM.
For the compound `CCCc1noc(-c2cnc3c([nH]c4cc(C#N)ccc43)c2NC(C)C)n1` [Example 72, 4-(isopropylamino)-3-(3-propyl-1,2,4-oxadiazol-5-yl)-5H-pyrido[3,2-b]indole-7-carbonitrile], the IC50 was 360 nM.
In the case of `COc1ccc(CNc2c(C(=O)NCCC(C)(C)O)cnc3c2[nH]c2cc(C#N)ccc23)cc1OC` [Example 56, 7-cyano-4-((3,4-dimethoxybenzyl)amino)-N-(3-hydroxy-3-methylbutyl)-5H-pyrido[3,2-b]indole-3-carboxamide], the IC50 stood at 510 nM.
The figure for `CC(C)Nc1c(C(=O)NCC2(CO)CC2)cnc2c1[nH]c1cc(C#N)ccc12` [Example 8, 7-cyano-N-((1-(hydroxymethyl)cyclopropyl)methyl)-4-(isopropylamino)-5H-pyrido[3,2-b]indole-3-carboxamide] is 330 nM.
Regarding `CC(=O)N[C@H]1C[C@H](NC(=O)c2cnc3c([nH]c4cc(C#N)ccc43)c2NC(C)C)C1` [Example 49, N-((1R,3R)-3-acetamidocyclobutyl)-7-cyano-4-(isopropylamino)-5H-pyrido[3,2-b]indole-3-carboxamide], the IC50 came to 22 nM.
In the case of `CC(C)(O)CCNC(=O)c1cnc2c([nH]c3cc(C#N)ccc32)c1NC1COC1` [Example 41, 7-cyano-N-(3-hydroxy-3-methylbutyl) (oxetan-3-ylamino)-5H-pyrido[3,2-b]indole-3-carboxamide] it was 9.2 nM.
In the case of `CC(C)Nc1c(C(=O)N[C@H]2C[C@@H](O)C2)cnc2c1[nH]c1cc(C#N)ccc12` [Example 24, 7-cyano-N-((1s,3s)-3-hydroxycyclobutyl)-4-(isopropylamino)-5H-pyrido[3,2-b]indole-3-carboxamide] it was 120 nM; in that of `CC(C)Cc1nc(-c2cnc3c([nH]c4cc(C#N)ccc43)c2NC(C)C)n[nH]1` [Example 70, 3-(5-isobutyl-1H-1,2,4-triazol-3-yl)-4-(isopropylamino)-5H-pyrido[3,2-b]indole-7-carbonitrile, TFA], 1700 nM.
The figure for `CC(C)Nc1c(C(=O)NC2CCCOC2)cnc2c1[nH]c1cc(C#N)ccc12` (stereo not drawn) [Example 6, 7-cyano-4-(isopropylamino)-N-(tetrahydro-2H-pyran-3-yl)-5H-pyrido[3,2-b]indole-3-carboxamide] is 37 nM; for `CC(C)CCn1cc(-c2cnc3c([nH]c4cc(C#N)ccc43)c2NC(C)C)nn1` [Example 73, 3-(1-isopentyl-1H-1,2,3-triazol-4-yl)-4-(isopropylamino)-5H-pyrido[3,2-b]indole-7-carbonitrile] it is 1.5 nM.
On to `CCNc1c(C(=O)NCCC2CCCNC2)cnc2c1[nH]c1cc(C#N)ccc12` (stereo not drawn) [Example 55, 7-cyano-4-(ethylamino)-N-(2-(piperidin-3-yl)ethyl)-5H-pyrido[3,2-b]indole-3-carboxamide], for which the IC50 is 2.8 nM.
In the case of `CC(C)Nc1c(C(=O)NC[C@@H](F)C(C)(C)O)cnc2[nH]c3ccc(C#N)cc3c12` [Example 81, (R)-6-cyano-N-(2-fluoro-3-hydroxy-3-methylbutyl)-4-(isopropylamino)-9H-pyrido [2,3-b]indole-3-carboxamide] it was 170 nM; in that of `CC(C)Nc1c(C(=O)NCCC(C)(C)N)cnc2c1[nH]c1cc(C#N)ccc12` [Example 52, N-(3-amino-3-methylbutyl)-7-cyano-4-(isopropylamino)-5H-pyrido[3,2-b]indole-3-carboxamide], 3.3 nM.
With `CC(C)(O)[C@H](F)CNC(=O)c1cnc2c([nH]c3cc(C#N)ccc32)c1NC1CCN(S(C)(=O)=O)CC1` [Example 64, (R)-7-cyano-N-(2-fluoro-3-hydroxy-3-methylbutyl)-4-((1-(methylsulfonyl)piperidin-4-yl)amino)-5H-pyrido[3,2-b]indole-3-carboxamide], the IC50 was determined as 53 nM.
`N#Cc1ccc2c(c1)[nH]c1c(NC3COC3)c(C(=O)NCCC(F)(F)F)cnc12` [Example 42, 7-cyano-4-(oxetanylamino)-N-(3,3,3-trifluoropropyl)-5H-pyrido[3,2-b]indole-3-carboxamide]: the IC50 is 24 nM.
For `CC(C)Nc1c(C(=O)NC2CCOCC2)cnc2c1[nH]c1cc(C#N)ccc12` [Example 11, 7-cyano-4-(isopropylamino)-N-(tetrahydro-2H-pyran-4-yl)-5H-pyrido[3,2-b]indole-3-carboxamide], the IC50 amounted to 27 nM.
`CC(C)Nc1c(C(=O)NCCC(C)(C)O)cnc2c1[nH]c1cc(C(N)=O)ccc12` [Example 48, N3-(3-hydroxy-3-methylbutyl)-4-(isopropylamino)-5H-pyrido[3,2-b]indole-3,7-dicarboxamide]: the IC50 worked out at 240 nM.
`CCNc1c(C(=O)NCCC2CCCCN2)cnc2c1[nH]c1cc(C#N)ccc12` (stereo not drawn) [Example 58, 7-cyano-4-(ethylamino)-N-(2-(piperidin-2-yl)ethyl)-5H-pyrido[3,2-b]indole-3-carboxamide]: the IC50 was 24 nM.
As for `CC(C)Nc1c(C(=O)NC[C@@H](F)C(C)(C)O)cnc2c1[nH]c1cc(-c3ccc(=O)[nH]c3)ccc12` [Example 68, (R)—N-(2-fluoro-3-hydroxymethylbutyl)-4-(isopropylamino)-7-(6-oxo-1,6-dihydropyridin-3-yl)-5H-pyrido[3,2-b]indole-3-carboxamide], the IC50 came to 580 nM.
In the case of `CC(C)Nc1c(C(=O)NC[C@@H](F)C(C)(C)O)cnc2c1[nH]c1cc(-c3cn[nH]c3)ccc12` [Example 67, (R)—N-(2-fluoro-3-hydroxy-3-methylbutyl)-4-(isopropylamino)-7-(1H-pyrazol-4-yl)-5H-pyrido[3,2-b]indole-3-carboxamide], the IC50 amounted to 30 nM.
As for `CC(C)Nc1c(C(=O)NCC2(CO)COC2)cnc2c1[nH]c1cc(C#N)ccc12` [Example 7, 7-cyano-N-((3-(hydroxymethyl)oxetan-3-yl)methyl)-4-(isopropylamino)-5H-pyrido[3,2-b]indole-3-carboxamide], the IC50 is 170 nM.
In the case of `CC(C)Nc1c(C(=O)N[C@H]2C[C@H](N)C2)cnc2c1[nH]c1cc(C#N)ccc12` [Example 47, N-((1R,3R)-3-aminocyclobutyl)-7-cyano (isopropylamino)-5H-pyrido[3,2-b]indole-3-carboxamide] it was 40 nM.
In the case of `CC(C)(O)CCNC(=O)c1cnc2c([nH]c3cc(C#N)ccc32)c1N[C@@H]1CCOC1` [Example 26, (R)-7-cyano-N-(3-hydroxy-3-methylbutyl)-4-((tetrahydrofuran-3-yl)amino)-5H-pyrido[3,2-b] indole-3-carboxamide] it was 33 nM; in that of `N#Cc1ccc2c(c1)[nH]c1c(NC3CC3)c(C(=O)N[C@H]3C[C@H](O)C3)cnc12` [Example 45, 7-cyano (cyclopropylamino)-N-((1R,3R)-3-hydroxycyclobutyl)-5H-pyrido[3,2-b]indole carboxamide], 33 nM.
The figure for `CC(C)Nc1c(C(=O)NC[C@@H](F)C(C)(C)O)cnc2c1[nH]c1cc(C#N)cnc12` [Example 69, (R)-7-cyano-N-(2-fluoro-3-hydroxy-3-methylbutyl)-4-(isopropylamino)-5H-pyrrolo [3,2-b:4,5-b′]dipyridine-3-carboxamide] is 540 nM; for `COC(=O)N[C@H]1C[C@H](NC(=O)c2cnc3c([nH]c4cc(C#N)ccc43)c2NC(C)C)C1` [Example 50, methyl ((1R,3R)-3-(7-cyano-4-(isopropylamino)-5H-pyrido[3,2-b]indole-3-carboxamido)cyclobutyl)carbamate] it is 33 nM; for `CC(C)(O)CCNC(=O)c1cnc2c([nH]c3cc(C#N)ccc32)c1N[C@H]1CCOC1` [Example 28, (S)-7-cyano-N-(3-hydroxy-3-methylbutyl)-4-((tetrahydrofuran-3-yl)amino)-5H-pyrido[3,2-b]indole-3-carboxamide] it is 48 nM.
With `C[C@H](Nc1c(C(=O)NCCC(C)(C)O)cnc2c1[nH]c1cc(C#N)ccc12)C1CC1` [Example 29, (S)-7-cyano-4-((1-cyclopropylethyl)amino)-N-(3-hydroxy-3-methylbutyl)-5H-pyrido[3,2-b]indole-3-carboxamide], the IC50 was found to be 11 nM.
The figure for `CCCc1nc(-c2cnc3c([nH]c4cc(C#N)ccc43)c2NC(C)C)n[nH]1` [Example 71, 4-(isopropylamino)-3-(5-propyl-1H-1,2,4-triazol-3-yl)-5H-pyrido[3,2-b]indole carbonitrile] is 500 nM.
As to `CC(C)Nc1c(C(=O)NC2CCNCC2)cnc2c1[nH]c1cc(C#N)ccc12` [Example 19, 7-cyano (isopropylamino)-N-(piperidin-4-yl)-5H-pyrido[3,2-b]indole-3-carboxamide], the IC50 came to 20 nM.
